Results reported in US7932290B2, “Method for the treatment of metabolic disorders” (Wellstat Biologics Corporation, priority 2003, dated 2011).

Key:
Experiment in all cases: Transcription activation potential, GAL4 luciferase reporter in C3A cells
Type in all cases: cell-based
[1] = biological target: T1, Human PPARα LBD fusion protein (Homo sapiens, UniProt Q07869)
T1 construct: a.a; 167-468)
T1 sequence (Q07869 167-468): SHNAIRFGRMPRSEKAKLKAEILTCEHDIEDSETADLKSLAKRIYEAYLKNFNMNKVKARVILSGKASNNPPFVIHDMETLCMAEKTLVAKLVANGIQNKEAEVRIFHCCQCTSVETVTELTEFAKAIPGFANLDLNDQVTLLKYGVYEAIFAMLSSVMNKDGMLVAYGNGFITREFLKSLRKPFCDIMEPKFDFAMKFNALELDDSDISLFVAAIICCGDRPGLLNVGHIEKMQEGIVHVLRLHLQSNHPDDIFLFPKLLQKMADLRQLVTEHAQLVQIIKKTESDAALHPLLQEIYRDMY
Procedure: (§1) Cells were seeded in 24 well plates the day prior to transfection at 5×10^4−2×10^5 cells/well, depending upon cell type. Cells were transfected using Lipofectamine 2000 reagent from Invitrogen. A total of 0.8 μg DNA/well was added to 50 μL of Optimem Reduced Serum media (serum free; Gibco). Lipofectamine 2000 was added (2.5 μL/well) to another tube containing 50 μL of Optimem media. Plasmid DNA was added at a ratio of 4:3 (reporter:activator); where appropriate, salmon sperm DNA was substituted for activator expressing plasmid. The reporter plasmid used was pFR-Luc, which has the firefly luciferase gene under the control of a GAL4 UAS ([…]) containing promoter. The activator expressing plasmids contain yeast GAL4 DNA binding domain (dbd) fusion of either human PPARα ligand binding domain (LBD; a.a. 167-468) or human PPARγ LBD (a.a. 176-479). DNA constructs containing the mouse PPARα or PPARγ LBD fused to the GAL4 DNA binding domain were also used. The two solutions were incubated at room temperature for 5 min, and then combined. The combined solution was incubated at room temperature for approximately 30 min. Cells were washed once with PBS, and 100 μL of transfection mix added to each well. Plates were incubated at 37° C. in a 5% CO2 incubator for 4.5 hr, followed by aspiration of the transfection mix, with plates refed using EMEM complete media (supplemented with 10% FBS, 1× Glutamine). 24 hr post-transfection, plates were treated with the appropriate compounds in EMEM complete media, followed by washing once with PBS and addition of 100 μL 1× reporter lysis buffer/well (Promega) 24 hr after treatment. Plates went through one freeze/thaw cycle prior to analysis. Approximately 10 μL of lysate was added to 100 μL of firefly luciferase substrate, mixed by pipetting, and analyzed on a luminometer for 10 s using the integration function (relative luciferase units/RLU) or on a Microbeta Trilux (luciferase counts per second/LCPS). Each treatment was performed in triplicate, and in multiple, separate experiments.

[2] = biological target: T2, Mouse PPARα LBD fusion protein (Mus musculus, UniProt P23204)
T2 sequence (P23204 239-466): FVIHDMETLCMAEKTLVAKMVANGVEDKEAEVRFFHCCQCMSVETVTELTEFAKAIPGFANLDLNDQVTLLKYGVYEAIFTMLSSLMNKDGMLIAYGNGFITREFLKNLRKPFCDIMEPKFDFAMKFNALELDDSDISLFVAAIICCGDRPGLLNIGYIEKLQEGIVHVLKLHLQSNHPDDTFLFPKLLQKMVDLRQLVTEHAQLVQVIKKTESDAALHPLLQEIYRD
Procedure: as §1

[3] = biological target: T3, Mouse PPARγ LBD fusion protein (Mus musculus, UniProt P37238)
T3 sequence (P37238 238-503): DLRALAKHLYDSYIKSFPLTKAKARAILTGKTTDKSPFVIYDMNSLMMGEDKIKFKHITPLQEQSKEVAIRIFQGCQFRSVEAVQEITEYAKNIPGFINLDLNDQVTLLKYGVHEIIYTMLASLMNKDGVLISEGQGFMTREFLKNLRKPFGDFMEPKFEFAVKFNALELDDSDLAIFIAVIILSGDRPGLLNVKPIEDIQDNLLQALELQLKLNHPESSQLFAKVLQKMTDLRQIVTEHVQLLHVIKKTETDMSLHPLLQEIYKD
Procedure: (§2) Cells were seeded in 24 well plates the day prior to transfection at 5×10^4−2×10^5 cells/well, depending upon cell type. Cells were transfected using Lipofectamine 2000 reagent from Invitrogen. A total of 0.8 μg DNA/well was added to 50 μL of Optimem Reduced Serum media (serum free; Gibco). Lipofectamine 2000 was added (2.5 μL/well) to another tube containing 50 μL of Optimem media. Plasmid DNA was added at a ratio of 4:3 (reporter:activator); where appropriate, salmon sperm DNA was substituted for activator expressing plasmid. […] DNA constructs containing the mouse PPARα or PPARγ LBD fused to the GAL4 DNA binding domain were also used. The two solutions were incubated at room temperature for 5 min, and then combined. The combined solution was incubated at room temperature for approximately 30 min. Cells were washed once with PBS, and 100 μL of transfection mix added to each well. Plates were incubated at 37° C. in a 5% CO2 incubator for 4.5 hr, followed by aspiration of the transfection mix, with plates refed using EMEM complete media (supplemented with 10% FBS, 1× Glutamine). 24 hr post-transfection, plates were treated with the appropriate compounds in EMEM complete media, followed by washing once with PBS and addition of 100 μL 1× reporter lysis buffer/well (Promega) 24 hr after treatment. Plates went through one freeze/thaw cycle prior to analysis. Approximately 10 μL of lysate was added to 100 μL of firefly luciferase substrate, mixed by pipetting, and analyzed on a luminometer for 10 s using the integration function (relative luciferase units/RLU) or on a Microbeta Trilux (luciferase counts per second/LCPS). Each treatment was performed in triplicate, and in multiple, separate experiments.

[4] = tested on: Human PPARγ LBD fusion protein
Procedure: as §2

[5] = 100 μM test compound, Table 20b
[6] = 200 μM test compound, Table 20b

Structure (SMILES) | transcription activation potential (luciferase) ± standard deviation ([1]; 1 μM) [LCPS] | transcription activation potential (luciferase) ± standard deviation ([1]; 3 μM) [LCPS] | transcription activation potential (luciferase) ± standard deviation ([1]; 10 μM) [LCPS] | transcription activation potential (luciferase) ± standard deviation ([1]; 30 μM) [LCPS] | transcription activation potential (luciferase) ± standard deviation ([1]; 100 μM) [LCPS] | transcription activation potential (luciferase) ± standard deviation ([1]; 200 μM) [LCPS] | transcription activation potential (luciferase) ± standard deviation ([2]; 1 μM, Table 20a) [LCPS] | transcription activation potential (luciferase) ± standard deviation ([2]; 3 μM, Table 20a) [LCPS] | transcription activation potential (luciferase) ± standard deviation ([2]; 10 μM, Table 20a) [LCPS] | transcription activation potential (luciferase) ± standard deviation ([2]; 30 μM, Table 20a) [LCPS] | transcription activation potential (luciferase) ± standard deviation ([2]; 100 μM, Table 20a) [LCPS] | transcription activation potential (luciferase) ± standard deviation ([2]; 100 μM, Table 21a) [RLU] | transcription activation potential (luciferase) ± standard deviation ([2]; 200 μM, Table 20a) [LCPS] | transcription activation potential (luciferase) ± standard deviation ([3]; 1 μM test compound, Table 20b) [LCPS] | transcription activation potential (luciferase) ± standard deviation ([3]; 1 μM, Table 21b) [RLU] | transcription activation potential (luciferase) ± standard deviation ([3]; 3 μM test compound, Table 20b) [LCPS] | transcription activation potential (luciferase) ± standard deviation ([3]; 3 μM, Table 21b) [RLU] | transcription activation potential (luciferase) ± standard deviation ([3]; 5 μM, Table 21b) [RLU] | transcription activation potential (luciferase) ± standard deviation ([3]; 7 μM, Table 21b) [RLU] | transcription activation potential (luciferase) ± standard deviation ([3]; 10 μM test compound, Table 20b) [LCPS] | other results
Cc1cccc(C)c1COc1cccc(C(=O)CCC(=O)O)c1 [Compound BI, 4-(3-(2,6-Dimethylbenzyloxy)phenyl)-4-oxobutyric acid] | 127.7 ± 7.1 | 128 ± 70.7 | 52.7 ± 8.2 | 55.4 ± 16.2 | 20.9 ± 13.1 | 31.1 ± 29.4 | 14.67 ± 1.08 | 15.2 ± 2.78 | 15.1 ± 3.78 | 10.43 ± 1.81 | 15.37 ± 6.21 | 4421 ± 118 | 18.6 ± 11.66 | 2.4 ± 2.26 | 746 ± 362 | 2.6 ± 1.41 | 174 ± 153 | 996 ± 855 | 220 ± 137 | 2.2 ± 1.57 | transcription activation potential (luciferase) ± standard deviation ([3]; 10 μM, Table 21b): 479 ± 353 RLU; transcription activation potential (luciferase) ± standard deviation ([3]; 30 μM test compound, Table 20b): 4.9 ± 4.42 LCPS; transcription activation potential (luciferase) ± standard deviation ([3]; 30 μM, Table 21b): 557 ± 639 RLU; transcription activation potential (luciferase) ± standard deviation [3, 5]: 2.63 ± 1.96 LCPS; transcription activation potential (luciferase) ± standard deviation ([3]; 100 μM, Table 21b): 3330 ± 1848 RLU; transcription activation potential (luciferase) ± standard deviation [3, 6]: 65.77 ± 10.55 LCPS; transcription activation potential (luciferase) ± standard deviation ([4]; 1 μM test compound): 43.3 ± 11.6 LCPS; transcription activation potential (luciferase) ± standard deviation ([4]; 3 μM test compound): 26 ± 4.5 LCPS; transcription activation potential (luciferase) ± standard deviation ([4]; 10 μM test compound): 40.1 ± 13.5 LCPS; transcription activation potential (luciferase) ± standard deviation ([4]; 30 μM test compound): 22.9 ± 10.3 LCPS; transcription activation potential (luciferase) ± standard deviation ([4]; 100 μM test compound): 34.6 ± 15.6 LCPS; transcription activation potential (luciferase) ± standard deviation ([4]; 200 μM test compound): 227.3 ± 25.8 LCPS
Cc1cccc(C)c1COc1cccc(CC(=O)O)c1 [Compound CF, 3-(2,6-Dimethylbenzyloxy)phenylacetic acid] | 37 ± 11.5 | 47 ± 22.8 | 19.9 ± 7.8 | 40.2 ± 18.9 | 19 ± 14.2 | 12.9 ± 8.3 | 13.17 ± 7.84 | 5.63 ± 0.42 | 153.15 ± 24.4 | 358.6 ± 5.23 | 201.5 ± 50.84 | 41037 ± 5401 | 106.77 ± 32.53 | 0.33 ± 0.21 | 146 ± 119 | 10.6 ± 8.74 | 579 ± 557 | 476 ± 527 | 834 ± 984 | 17.2 ± 21 | transcription activation potential (luciferase) ± standard deviation ([2]; 1 μM, Table 21a): 2694 ± 159 RLU; transcription activation potential (luciferase) ± standard deviation ([2]; 3 μM, Table 21a): 4527 ± 740 RLU; transcription activation potential (luciferase) ± standard deviation ([2]; 5 μM, Table 21a): 7188 ± 1753 RLU; transcription activation potential (luciferase) ± standard deviation ([2]; 7 μM, Table 21a): 14325 ± 1032 RLU; transcription activation potential (luciferase) ± standard deviation ([2]; 10 μM, Table 21a): 16680 ± 2432 RLU; transcription activation potential (luciferase) ± standard deviation ([2]; 30 μM, Table 21a): 38105 ± 3133 RLU; transcription activation potential (luciferase) ± standard deviation ([3]; 10 μM, Table 21b): 207 ± 107 RLU; transcription activation potential (luciferase) ± standard deviation ([3]; 30 μM test compound, Table 20b): 88.2 ± 33.2 LCPS; transcription activation potential (luciferase) ± standard deviation ([3]; 30 μM, Table 21b): 818 ± 1201 RLU; transcription activation potential (luciferase) ± standard deviation [3, 5]: 45.8 ± 36.9 LCPS; transcription activation potential (luciferase) ± standard deviation ([3]; 100 μM, Table 21b): 237 ± 216 RLU; transcription activation potential (luciferase) ± standard deviation [3, 6]: 93.6 ± 29.7 LCPS; transcription activation potential (luciferase) ± standard deviation ([4]; 1 μM test compound): 6.2 ± 0.6 LCPS; transcription activation potential (luciferase) ± standard deviation ([4]; 3 μM test compound): 49.4 ± 7.8 LCPS; transcription activation potential (luciferase) ± standard deviation ([4]; 10 μM test compound): 141.5 ± 25.9 LCPS; transcription activation potential (luciferase) ± standard deviation ([4]; 30 μM test compound): 230.4 ± 97.2 LCPS; transcription activation potential (luciferase) ± standard deviation ([4]; 100 μM test compound): 225.2 ± 57.5 LCPS; transcription activation potential (luciferase) ± standard deviation ([4]; 200 μM test compound): 280.1 ± 89.7 LCPS
